The numbers were not newly measured in PMC3925743 (Journal of controlled release : official journal of the …, 2013), which cites them from elsewhere.

The data set relates to prostate cancer LNCaP cells.

With protamine, the “delivery of siRNA into cells” value is given as “cannot deliver siRNA”.
